Values of other authors as cited in patent US20090280177A1, “Pharmaceutical preparation for treating fibromyalgia” (priority 2006, published 2009).

How the values were obtained:
T cell-dependent antigen = conditions: dose-dependent manner
[1] = test system: T cell-independent antigen
[2] = test system: peripheral blood-adhesive cells from chronic rheumatoid arthritis patients
T cells = conditions: dose-dependent manner

## O=C(O)c1cc(/N=N/c2ccc(S(=O)(=O)Nc3ccccn3)cc2)ccc1O [salazosulfapyridine, 2-Hydroroxy-5-[4-(pyridine-2-ylsulfamoyl)phenylazo] benzoic acid]
T cell-dependent antigen
  immune response to a T cell-dependent antigen: suppressed
[1]
  immune response to a T cell-independent antigen: hardly suppressed
[2]
  production of IL-1 and IL-6: suppress
T cells
  IL-2 production: suppress
